Results from paper PMC7407272, “Induction of Lysosome Membrane Permeabilization as a Therapeutic Strategy to Target Pancreatic Cancer Stem Cells” (Cancers, 2020).

What was measured:
Experiment in all cases: KINOMEscan
SRPK2 = target: T1, SRPK2 (Homo sapiens, UniProt P78362); format: binding; settings: read-out: % Ctrl
T1 construct: purchased DiscoveRx KINOMEscan

SNARK = target: T2, SNARK (Homo sapiens, UniProt Q9H093); format: binding; settings: read-out: % Ctrl
T2 construct: purchased DiscoveRx KINOMEscan

FGFR2 = target: T3, FGFR2 (Homo sapiens, UniProt P21802); format: binding; settings: read-out: % Ctrl
T3 construct: purchased DiscoveRx KINOMEscan

PIK3C2G = target: T4, PIK3C2G (Homo sapiens, UniProt O75747); format: binding; settings: read-out: % Ctrl
T4 construct: purchased DiscoveRx KINOMEscan

CDK8 = target: T5, CDK8 (Homo sapiens, UniProt P49336); format: binding; settings: read-out: % Ctrl
T5 construct: purchased DiscoveRx KINOMEscan

YSK4 = target: T6, YSK4 (Homo sapiens, UniProt Q56UN5); format: binding; settings: read-out: % Ctrl
T6 construct: purchased DiscoveRx KINOMEscan

FRK = target: T7, FRK (Homo sapiens, UniProt P42685); format: binding; settings: read-out: % Ctrl
T7 construct: purchased DiscoveRx KINOMEscan

ZAP70 = target: T8, ZAP70 (Homo sapiens, UniProt P43403); format: binding; settings: read-out: % Ctrl
T8 construct: purchased DiscoveRx KINOMEscan

ALK(L1196M) = target: T9, ALK(L1196M) (Homo sapiens, UniProt Q9UM73, L1196M); format: binding; settings: read-out: % Ctrl
T9 construct: purchased DiscoveRx KINOMEscan

TBK1 = target: T10, TBK1 (Homo sapiens, UniProt Q9UHD2); format: binding; settings: read-out: % Ctrl
T10 construct: purchased DiscoveRx KINOMEscan

MAP4K4 = target: T11, MAP4K4 (Homo sapiens, UniProt O95819); format: binding; settings: read-out: % Ctrl
T11 construct: purchased DiscoveRx KINOMEscan

MST1 = target: T12, MST1 (Homo sapiens, UniProt Q13043); format: binding; settings: read-out: % Ctrl
T12 construct: purchased DiscoveRx KINOMEscan

MAP3K2 = target: T13, MAP3K2 (Homo sapiens, UniProt Q9Y2U5); format: binding; settings: read-out: % Ctrl
T13 construct: purchased DiscoveRx KINOMEscan

MEK3 = target: T14, MEK3 (Homo sapiens, UniProt P46734); format: binding; settings: read-out: % Ctrl
T14 construct: purchased DiscoveRx KINOMEscan

DAPK1 = target: T15, DAPK1 (Homo sapiens, UniProt P53355); format: binding; settings: read-out: % Ctrl
T15 construct: purchased DiscoveRx KINOMEscan

FLT3(D835V) = target: T16, FLT3(D835V) (Homo sapiens, UniProt P36888, D835V); format: binding; settings: read-out: % Ctrl
T16 construct: purchased DiscoveRx KINOMEscan

RIPK1 = target: T17, RIPK1 (Homo sapiens, UniProt Q13546); format: binding; settings: read-out: % Ctrl
T17 construct: purchased DiscoveRx KINOMEscan

MET(Y1235D) = target: T18, MET(Y1235D) (Homo sapiens, UniProt P08581, Y1235D); format: binding; settings: read-out: % Ctrl
T18 construct: purchased DiscoveRx KINOMEscan

CDK4-cyclinD1 = target: T19, CDK4-cyclinD1 (Homo sapiens, UniProt P11802); format: binding; settings: read-out: % Ctrl
T19 construct: purchased DiscoveRx KINOMEscan

ABL1(F317L)-P = target: T20, ABL1(F317L)-P (Homo sapiens, UniProt P00519, F317L); format: binding; settings: read-out: % Ctrl
T20 construct: purchased DiscoveRx KINOMEscan

LCK = target: T21, LCK (Homo sapiens, UniProt P06239); format: binding; settings: read-out: % Ctrl
T21 construct: purchased DiscoveRx KINOMEscan

LIMK1 = target: T22, LIMK1 (Homo sapiens, UniProt P53667); format: binding; settings: read-out: % Ctrl
T22 construct: purchased DiscoveRx KINOMEscan

PFTAIRE2 = target: T23, PFTAIRE2 (Homo sapiens, UniProt Q96Q40); format: binding; settings: read-out: % Ctrl
T23 construct: purchased DiscoveRx KINOMEscan

AXL = target: T24, AXL (Homo sapiens, UniProt P30530); format: binding; settings: read-out: % Ctrl
T24 construct: purchased DiscoveRx KINOMEscan

ROCK2 = target: T25, ROCK2 (Homo sapiens, UniProt O75116); format: binding; settings: read-out: % Ctrl
T25 construct: purchased DiscoveRx KINOMEscan

PIK3CA(E542K) = target: T26, PIK3CA(E542K) (Homo sapiens, UniProt P42336, E542K); format: binding; settings: read-out: % Ctrl
T26 construct: purchased DiscoveRx KINOMEscan

ABL1(T315I)-nonP = target: T27, ABL1(T315I)-nonP (Homo sapiens, UniProt P00519, T315I); format: binding; settings: read-out: % Ctrl
T27 construct: purchased DiscoveRx KINOMEscan

TYRO3 = target: T28, TYRO3 (Homo sapiens, UniProt Q06418); format: binding; settings: read-out: % Ctrl
T28 construct: purchased DiscoveRx KINOMEscan

CDKL3 = target: T29, CDKL3 (Homo sapiens, UniProt Q8IVW4); format: binding; settings: read-out: % Ctrl
T29 construct: purchased DiscoveRx KINOMEscan

CLK1 = target: T30, CLK1 (Homo sapiens, UniProt P49759); format: binding; settings: read-out: % Ctrl
T30 construct: purchased DiscoveRx KINOMEscan

EGFR(L747-T751del,Sins) = format: binding, human; settings: 1 µM
TESK1 = target: T31, TESK1 (Homo sapiens, UniProt Q15569); format: binding; settings: read-out: % Ctrl
T31 construct: purchased DiscoveRx KINOMEscan

IKK-alpha = target: T32, IKK-alpha (Homo sapiens, UniProt O15111); format: binding; settings: read-out: % Ctrl
T32 construct: purchased DiscoveRx KINOMEscan

FLT1 = target: T33, FLT1 (Homo sapiens, UniProt P17948); format: binding; settings: read-out: % Ctrl
T33 construct: purchased DiscoveRx KINOMEscan

SRC = target: T34, SRC (Homo sapiens, UniProt P12931); format: binding; settings: read-out: % Ctrl
T34 construct: purchased DiscoveRx KINOMEscan

EPHA6 = target: T35, EPHA6 (Homo sapiens, UniProt Q9UF33); format: binding; settings: read-out: % Ctrl
T35 construct: purchased DiscoveRx KINOMEscan

NIK = target: T36, NIK (Homo sapiens, UniProt Q99558); format: binding; settings: read-out: % Ctrl
T36 construct: purchased DiscoveRx KINOMEscan

T2 sequence (Q9H093 whole entry): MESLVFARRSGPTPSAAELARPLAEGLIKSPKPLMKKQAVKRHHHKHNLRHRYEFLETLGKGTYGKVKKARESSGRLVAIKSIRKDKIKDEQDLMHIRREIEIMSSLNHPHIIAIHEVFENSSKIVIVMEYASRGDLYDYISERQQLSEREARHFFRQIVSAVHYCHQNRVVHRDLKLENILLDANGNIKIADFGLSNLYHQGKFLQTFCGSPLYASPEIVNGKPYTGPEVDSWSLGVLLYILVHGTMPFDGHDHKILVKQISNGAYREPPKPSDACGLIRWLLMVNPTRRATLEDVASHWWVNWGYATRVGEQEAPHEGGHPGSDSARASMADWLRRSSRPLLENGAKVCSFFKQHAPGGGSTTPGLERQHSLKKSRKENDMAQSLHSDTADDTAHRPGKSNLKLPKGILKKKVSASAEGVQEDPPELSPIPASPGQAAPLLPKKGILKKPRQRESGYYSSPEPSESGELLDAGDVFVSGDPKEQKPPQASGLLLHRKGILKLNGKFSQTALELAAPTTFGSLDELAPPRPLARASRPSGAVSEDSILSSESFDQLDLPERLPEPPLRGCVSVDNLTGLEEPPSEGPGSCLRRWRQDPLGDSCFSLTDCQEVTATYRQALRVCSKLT
T17 sequence (Q13546 whole entry): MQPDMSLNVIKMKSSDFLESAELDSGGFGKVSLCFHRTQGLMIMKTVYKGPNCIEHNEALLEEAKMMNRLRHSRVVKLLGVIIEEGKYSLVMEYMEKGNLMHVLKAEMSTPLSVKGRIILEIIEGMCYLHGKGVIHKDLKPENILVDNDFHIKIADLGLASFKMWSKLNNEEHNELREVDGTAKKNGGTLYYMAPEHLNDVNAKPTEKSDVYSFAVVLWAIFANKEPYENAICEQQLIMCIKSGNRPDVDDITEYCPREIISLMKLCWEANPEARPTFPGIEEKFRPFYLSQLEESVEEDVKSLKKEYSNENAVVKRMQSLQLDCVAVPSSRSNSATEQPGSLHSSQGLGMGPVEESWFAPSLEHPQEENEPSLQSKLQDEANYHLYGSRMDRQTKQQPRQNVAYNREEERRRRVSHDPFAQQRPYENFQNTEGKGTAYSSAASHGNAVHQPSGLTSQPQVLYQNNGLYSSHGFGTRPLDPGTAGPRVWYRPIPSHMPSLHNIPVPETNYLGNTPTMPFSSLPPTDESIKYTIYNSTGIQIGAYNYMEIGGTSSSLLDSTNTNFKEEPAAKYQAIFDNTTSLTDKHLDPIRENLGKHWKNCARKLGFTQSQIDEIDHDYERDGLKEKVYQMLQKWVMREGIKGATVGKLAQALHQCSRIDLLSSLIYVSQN
T7 sequence (P42685 whole entry): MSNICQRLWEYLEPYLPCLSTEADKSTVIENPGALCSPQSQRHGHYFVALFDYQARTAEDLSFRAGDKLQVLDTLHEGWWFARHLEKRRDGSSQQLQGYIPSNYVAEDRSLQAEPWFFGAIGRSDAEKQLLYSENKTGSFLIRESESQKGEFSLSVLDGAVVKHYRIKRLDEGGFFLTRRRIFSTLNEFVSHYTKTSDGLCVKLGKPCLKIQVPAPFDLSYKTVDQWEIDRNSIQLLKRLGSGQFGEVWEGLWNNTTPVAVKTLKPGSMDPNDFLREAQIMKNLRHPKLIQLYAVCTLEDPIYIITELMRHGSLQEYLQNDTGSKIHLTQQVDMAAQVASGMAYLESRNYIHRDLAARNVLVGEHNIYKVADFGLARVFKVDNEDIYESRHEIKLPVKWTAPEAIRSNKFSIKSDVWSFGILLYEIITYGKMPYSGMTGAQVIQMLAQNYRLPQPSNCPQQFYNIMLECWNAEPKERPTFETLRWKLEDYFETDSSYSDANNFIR
T33 sequence (P17948 27-1338): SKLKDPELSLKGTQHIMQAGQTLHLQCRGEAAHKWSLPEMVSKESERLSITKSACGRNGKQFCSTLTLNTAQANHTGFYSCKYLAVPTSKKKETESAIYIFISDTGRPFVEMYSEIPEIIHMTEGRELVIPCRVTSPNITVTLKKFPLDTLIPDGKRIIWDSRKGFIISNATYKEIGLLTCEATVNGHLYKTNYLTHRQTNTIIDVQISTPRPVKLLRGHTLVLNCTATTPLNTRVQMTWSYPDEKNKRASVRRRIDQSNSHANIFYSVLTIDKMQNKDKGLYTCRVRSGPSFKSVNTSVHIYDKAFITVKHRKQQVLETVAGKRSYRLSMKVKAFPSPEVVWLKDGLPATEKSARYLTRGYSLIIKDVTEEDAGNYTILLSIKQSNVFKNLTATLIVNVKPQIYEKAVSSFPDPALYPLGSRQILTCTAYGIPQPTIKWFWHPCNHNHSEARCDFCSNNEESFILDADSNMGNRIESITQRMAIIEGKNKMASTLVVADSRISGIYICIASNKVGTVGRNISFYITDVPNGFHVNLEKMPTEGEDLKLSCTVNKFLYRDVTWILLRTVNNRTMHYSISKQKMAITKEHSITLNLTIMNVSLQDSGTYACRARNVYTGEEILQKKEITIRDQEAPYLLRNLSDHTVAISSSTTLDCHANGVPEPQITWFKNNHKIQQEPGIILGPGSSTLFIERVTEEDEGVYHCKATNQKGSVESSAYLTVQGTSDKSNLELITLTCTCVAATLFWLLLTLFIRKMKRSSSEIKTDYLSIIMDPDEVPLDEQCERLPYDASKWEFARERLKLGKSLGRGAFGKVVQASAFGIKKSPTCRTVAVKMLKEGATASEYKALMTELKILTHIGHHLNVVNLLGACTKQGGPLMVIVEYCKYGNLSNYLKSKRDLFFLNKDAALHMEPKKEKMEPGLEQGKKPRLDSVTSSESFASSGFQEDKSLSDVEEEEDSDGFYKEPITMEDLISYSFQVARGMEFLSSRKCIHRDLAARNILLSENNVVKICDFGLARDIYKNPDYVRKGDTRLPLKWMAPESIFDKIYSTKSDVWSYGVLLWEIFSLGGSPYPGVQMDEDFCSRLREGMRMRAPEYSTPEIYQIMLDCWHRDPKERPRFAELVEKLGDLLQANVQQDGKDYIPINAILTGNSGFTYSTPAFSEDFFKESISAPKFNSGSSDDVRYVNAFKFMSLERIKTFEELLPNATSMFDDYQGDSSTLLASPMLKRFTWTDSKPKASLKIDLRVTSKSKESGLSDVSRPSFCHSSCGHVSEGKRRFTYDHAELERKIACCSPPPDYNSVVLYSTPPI
T31 sequence (Q15569 whole entry): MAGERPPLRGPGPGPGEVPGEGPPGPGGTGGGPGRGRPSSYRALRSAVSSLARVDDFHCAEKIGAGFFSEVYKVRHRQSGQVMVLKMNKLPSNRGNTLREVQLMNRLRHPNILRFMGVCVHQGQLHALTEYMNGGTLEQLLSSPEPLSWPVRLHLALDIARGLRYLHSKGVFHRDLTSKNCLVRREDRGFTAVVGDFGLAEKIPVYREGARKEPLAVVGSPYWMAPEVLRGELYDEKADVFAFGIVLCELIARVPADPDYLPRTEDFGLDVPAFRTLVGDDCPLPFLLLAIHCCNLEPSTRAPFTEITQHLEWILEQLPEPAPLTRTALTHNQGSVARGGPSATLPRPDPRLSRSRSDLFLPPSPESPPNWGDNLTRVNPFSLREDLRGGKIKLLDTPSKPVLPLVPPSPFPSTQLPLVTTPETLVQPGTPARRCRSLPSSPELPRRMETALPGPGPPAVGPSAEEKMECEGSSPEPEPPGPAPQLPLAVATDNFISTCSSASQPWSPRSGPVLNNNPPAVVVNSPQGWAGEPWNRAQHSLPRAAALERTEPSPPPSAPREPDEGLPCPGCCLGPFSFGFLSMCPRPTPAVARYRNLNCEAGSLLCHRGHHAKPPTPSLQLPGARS
T6 sequence (Q56UN5 whole entry): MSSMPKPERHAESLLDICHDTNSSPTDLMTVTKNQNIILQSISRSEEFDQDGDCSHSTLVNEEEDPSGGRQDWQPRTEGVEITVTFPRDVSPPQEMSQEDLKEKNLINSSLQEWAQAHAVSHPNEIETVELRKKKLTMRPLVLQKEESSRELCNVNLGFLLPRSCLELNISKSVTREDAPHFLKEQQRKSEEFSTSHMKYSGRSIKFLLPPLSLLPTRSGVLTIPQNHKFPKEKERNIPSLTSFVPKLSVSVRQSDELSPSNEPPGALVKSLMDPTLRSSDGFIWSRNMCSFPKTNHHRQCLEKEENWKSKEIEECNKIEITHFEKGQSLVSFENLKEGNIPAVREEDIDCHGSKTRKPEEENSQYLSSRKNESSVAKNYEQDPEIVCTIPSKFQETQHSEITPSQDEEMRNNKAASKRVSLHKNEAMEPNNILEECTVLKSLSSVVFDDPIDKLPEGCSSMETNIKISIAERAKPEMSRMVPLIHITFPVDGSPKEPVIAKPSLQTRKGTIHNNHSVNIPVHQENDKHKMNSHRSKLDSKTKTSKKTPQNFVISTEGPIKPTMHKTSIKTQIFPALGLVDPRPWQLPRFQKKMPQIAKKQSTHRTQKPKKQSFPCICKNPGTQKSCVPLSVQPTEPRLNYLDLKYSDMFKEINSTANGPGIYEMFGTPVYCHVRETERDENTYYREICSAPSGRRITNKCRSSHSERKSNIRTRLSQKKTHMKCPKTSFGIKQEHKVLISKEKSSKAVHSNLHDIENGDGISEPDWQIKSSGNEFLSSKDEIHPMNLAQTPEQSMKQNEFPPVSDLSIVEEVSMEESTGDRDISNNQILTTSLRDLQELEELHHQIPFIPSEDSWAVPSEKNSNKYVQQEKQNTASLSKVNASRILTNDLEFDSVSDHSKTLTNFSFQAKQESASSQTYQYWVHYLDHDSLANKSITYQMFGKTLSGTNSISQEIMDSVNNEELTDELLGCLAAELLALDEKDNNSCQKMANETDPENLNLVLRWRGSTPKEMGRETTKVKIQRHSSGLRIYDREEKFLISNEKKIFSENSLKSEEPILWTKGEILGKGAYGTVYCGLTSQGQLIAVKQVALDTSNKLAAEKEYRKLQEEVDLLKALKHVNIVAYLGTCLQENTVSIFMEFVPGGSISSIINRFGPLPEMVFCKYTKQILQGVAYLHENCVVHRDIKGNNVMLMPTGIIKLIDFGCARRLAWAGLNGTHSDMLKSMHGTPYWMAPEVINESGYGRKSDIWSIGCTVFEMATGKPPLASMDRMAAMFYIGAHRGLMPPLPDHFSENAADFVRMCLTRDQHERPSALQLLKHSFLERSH

Which results are given for CN1CCC(CNc2ccc3ncc(C(=O)Nc4cccc(OC(F)(F)F)c4)n3n2)CC1 [Cpd 2]?
remaining binding at 1 µM (SRPK2): 94%; remaining binding at 1 µM (SNARK): 89%; remaining binding at 1 µM (FGFR2): 100%; remaining binding at 1 µM (PIK3C2G): 59%; remaining binding at 1 µM (CDK8): 58%; remaining binding at 1 µM (YSK4): 71%; remaining binding at 1 µM (FRK): 100%; remaining binding at 1 µM (ZAP70): 95%; remaining binding at 1 µM (ALK(L1196M)): 100%; remaining binding at 1 µM (TBK1): 100%; remaining binding at 1 µM (MAP4K4): 89%; remaining binding at 1 µM (MST1): 100%; remaining binding at 1 µM (MAP3K2): 92%; remaining binding at 1 µM (MEK3): 94%; remaining binding at 1 µM (DAPK1): 82%; remaining binding at 1 µM (FLT3(D835V)): 0.45%; remaining binding at 1 µM (RIPK1): 100%; remaining binding at 1 µM (MET(Y1235D)): 93%; remaining binding at 1 µM (CDK4-cyclinD1): 100%; remaining binding at 1 µM (ABL1(F317L)-P): 100%; remaining binding at 1 µM (LCK): 77%; remaining binding at 1 µM (LIMK1): 79%; remaining binding at 1 µM (PFTAIRE2): 92%; remaining binding at 1 µM (AXL): 65%; remaining binding at 1 µM (ROCK2): 94%; remaining binding at 1 µM (PIK3CA(E542K)): 92%; remaining binding at 1 µM (ABL1(T315I)-nonP): 70%; remaining binding at 1 µM (TYRO3): 89%; remaining binding at 1 µM (CDKL3): 91%; remaining binding at 1 µM (CLK1): 100%; % Ctrl (EGFR(L747-T751del,Sins)): 87%; remaining binding at 1 µM (TESK1): 90%; remaining binding at 1 µM (IKK-alpha): 97%; remaining binding at 1 µM (FLT1): 100%; remaining binding at 1 µM (SRC): 99%; remaining binding at 1 µM (EPHA6): 86%; remaining binding at 1 µM (NIK): 100%
